Data published in the NIST ThermoML archive (doi:10.1016/j.fluid.2005.06.017).
± gives the expanded uncertainty stated by the source.

Settings: Liquid, Ebulliometric method (Recirculating still)

| SMILES | vapor or sublimation pressure (353.15 K) [kPa] | vapor or sublimation pressure (373.15 K) [kPa] | vapor or sublimation pressure (333.15 K) [kPa] |
| --- | --- | --- | --- |
| CCCOCCC [dipropyl ether] | 74.1 ± 3.1 | 135.5 ± 3.1 | – |
| COC(C)(C)C [2-methoxy-2-methylpropane] | – | – | 120.4 ± 3.2 |
| CN1CCCC1=O [N-methylpyrrolidone] | 1.3 | 3.6 ± 3 | 0.5 |
| CCC(C)(C)OC [2-methoxy-2-methylbutane] | 86.7 ± 3.1 | – | – |
